Assay results from ChEMBL document CHEMBL3120142 (J Med Chem, 2014).
≈ marks a conversion by molar mass, not a printed value. Calls of active or inactive are those of the source. The rule behind the calls is not given here.

How the values were obtained:
Liver = experiment: Prodrug activation in 9000g human liver supernatant assessed as formation of oseltamivir carboxylate per mg protein at 500 uM after 30 mins by HPLC analysis; type: tissue-based; settings: 0.5 h
[1] = Mean residence time in Sprague-Dawley rat at 50 mg/kg, po by LC-MS/MS analysis; type: ADME, organism-based; design: dose 50 mg/kg, route oral; settings: in vivo
[2] = Cmax in Sprague-Dawley rat at 50 mg/kg, po by LC-MS/MS analysis; type: ADME, organism-based; design: dose 50 mg/kg, route oral; settings: in vivo
[3] = Tmax in Sprague-Dawley rat at 50 mg/kg, po by LC-MS/MS analysis; type: ADME, organism-based; design: dose 50 mg/kg, route oral; settings: in vivo
[4] = AUC in Sprague-Dawley rat at 50 mg/kg, iv by LC-MS/MS analysis; type: ADME, organism-based; design: dose 50 mg/kg, route intravenous; settings: plasma
[5] = Prodrug activation in human liver cytosol assessed as formation of oseltamivir carboxylate per mg protein at 500 uM after 30 mins by HPLC analysis; type: tissue-based; settings: 0.5 h
Liver microsome = experiment: Prodrug activation in human liver microsomes assessed as formation of oseltamivir carboxylate per mg protein at 500 uM after 30 mins by HPLC analysis; settings: 0.5 h
[6] = Chemical stability of the compound in phosphate buffer saline at pH 2.0 to 9.0; type: physicochemical
albumin = albumin (Homo sapiens, UniProt P02768); experiment: Binding affinity to albumin (unknown origin) at 10 to 50 uM after 10 mins by HPLC analysis; type: ADME; settings: read-out: PPB (converted)
[7] = Solubility of the compound in phosphate buffer saline at pH 7.4 after 20 mins by HPLC analysis; type: physicochemical
[8] = Solubility of the compound in phosphate buffer saline at pH 9.0 after 20 mins by HPLC analysis; type: physicochemical
[9] = Solubility of the compound in phosphate buffer saline at pH 2.0 after 20 mins by HPLC analysis; type: physicochemical
[10] = Prodrug activation in human liver mitochondria assessed as formation of oseltamivir carboxylate per mg protein at 500 uM after 30 mins by HPLC analysis; settings: 0.5 h
in vivo [11] = settings: Sprague-Dawley, rat, po, 50 mg/kg
in vivo [12] = settings: Sprague-Dawley, rat, po, 50 mg/kg; remark: listed apart in the source
Description: Half life in Sprague-Dawley rat at 50 mg/kg, po by LC-MS/MS analysis

Influenza A virus [13] = type: functional, organism-based; settings: A/Jena/5258/2009(H1N1), MDCK
Influenza A virus [14] = experiment: microbe, parasite or virus in culture; settings: A/Jena/5258/2009(H1N1), MDCK, 48 h
Influenza A virus [15] = experiment: Antiviral activity against Influenza A virus H3N2; type: functional, organism-based
Influenza A virus [16] = experiment: Antiviral activity against Influenza A virus H1N1; type: functional, organism-based
MDCK = experiment: Cytotoxicity against MDCK cells assessed as cell viability after 72 hrs; type: cell-based, Canis lupus familiaris; settings: dog
[17] = Prodrug activation in pig liver assessed as carboxylesterase-mediated oseltamivir carboxylate formation per mg protein at 500 uM after 30 mins by HPLC analysis; type: tissue-based, Sus scrofa; settings: 0.5 h
[18] = Prodrug activation in pig liver cytosol assessed as formation of oseltamivir carboxylate per mg protein at 500 uM after 30 mins by HPLC analysis; type: tissue-based, Sus scrofa; settings: 0.5 h
[19] = Prodrug activation in 9000g pig liver supernatant assessed as formation of oseltamivir carboxylate per mg protein at 500 uM after 30 mins by HPLC analysis; type: tissue-based, Sus scrofa; settings: 0.5 h
[20] = Prodrug activation in pig liver mitochondria assessed as formation of oseltamivir carboxylate per mg protein at 500 uM after 30 mins by HPLC analysis; design: species or system Sus scrofa; settings: 0.5 h
[21] = Prodrug activation in pig liver microsomes assessed as formation of oseltamivir carboxylate per mg protein at 500 uM after 30 mins by HPLC analysis; design: species or system Sus scrofa, Microsome; settings: 0.5 h
[22] = Oral bioavailability in fed mouse at 10 mg/kg by LC-MS/MS analysis; type: ADME, organism-based; settings: in vivo
[23] = Oral bioavailability in fasted mouse at 10 mg/kg by LC-MS/MS analysis; type: ADME, organism-based; settings: in vivo
Rattus norvegicus = experiment: Bioavailability in Sprague-Dawley rat at 10 mg/kg, iv by LC-MS/MS analysis; type: ADME, organism-based; settings: in vivo
[24] = Mean residence time in Sprague-Dawley rat at 10 mg/kg, iv by LC-MS/MS analysis; type: ADME, organism-based; design: dose 10 mg/kg, route intravenous; settings: in vivo
[25] = AUC in Sprague-Dawley rat at 10 mg/kg, iv by LC-MS/MS analysis; type: ADME, organism-based; design: dose 10 mg/kg, route intravenous; settings: plasma
[26] = Plasma protein binding in human at 10 to 50 uM after 10 mins by HPLC analysis; type: ADME, cell-free; settings: read-out: PPB (converted)
in vivo [27] = settings: Sprague-Dawley, rat, iv, 10 mg/kg
Description: Half life in Sprague-Dawley rat at 10 mg/kg, iv by LC-MS/MS analysis

in vivo [28] = settings: Sprague-Dawley, rat, po, 10 mg/kg
[29] = Half life in Sprague-Dawley rat plasma; type: ADME, cell-free
Neuraminidase [30] = molecular target: T1, Neuraminidase (Influenza A virus, UniProt B4URF0); design: species or system A/Rheinland-Pfalz/3911/03(H3N2)
Neuraminidase [31] = molecular target: T1, Neuraminidase; design: species or system A/Berlin/10/04(H3N2)
Neuraminidase [32] = molecular target: T1, Neuraminidase; design: species or system A/Hong Kong/68(H3N2)
Neuraminidase [33] = molecular target: T1, Neuraminidase; design: species or system A/HH/1580/09(H1N1)
Neuraminidase [34] = molecular target: T1, Neuraminidase; design: species or system A/Jena/5555/09(H1N1)
Neuraminidase [35] = molecular target: T1, Neuraminidase; design: species or system A/Jena/5258/2009(H1N1)
Neuraminidase [36] = molecular target: T1, Neuraminidase; design: species or system A/Sachsen/6/02(H3N2)

T1 sequence (B4URF0 whole entry): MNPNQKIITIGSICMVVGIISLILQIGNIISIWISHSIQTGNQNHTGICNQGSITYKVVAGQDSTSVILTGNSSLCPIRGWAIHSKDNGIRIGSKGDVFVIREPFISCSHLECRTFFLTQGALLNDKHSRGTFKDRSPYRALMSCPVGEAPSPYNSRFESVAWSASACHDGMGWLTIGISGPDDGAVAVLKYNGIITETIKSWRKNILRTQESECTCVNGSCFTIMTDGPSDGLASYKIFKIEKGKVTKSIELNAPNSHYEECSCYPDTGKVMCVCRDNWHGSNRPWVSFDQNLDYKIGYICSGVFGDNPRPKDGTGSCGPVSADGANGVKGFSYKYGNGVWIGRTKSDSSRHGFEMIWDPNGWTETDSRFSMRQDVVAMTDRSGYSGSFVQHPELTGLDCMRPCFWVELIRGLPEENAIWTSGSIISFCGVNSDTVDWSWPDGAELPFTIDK
albumin, sequence (P02768 whole entry): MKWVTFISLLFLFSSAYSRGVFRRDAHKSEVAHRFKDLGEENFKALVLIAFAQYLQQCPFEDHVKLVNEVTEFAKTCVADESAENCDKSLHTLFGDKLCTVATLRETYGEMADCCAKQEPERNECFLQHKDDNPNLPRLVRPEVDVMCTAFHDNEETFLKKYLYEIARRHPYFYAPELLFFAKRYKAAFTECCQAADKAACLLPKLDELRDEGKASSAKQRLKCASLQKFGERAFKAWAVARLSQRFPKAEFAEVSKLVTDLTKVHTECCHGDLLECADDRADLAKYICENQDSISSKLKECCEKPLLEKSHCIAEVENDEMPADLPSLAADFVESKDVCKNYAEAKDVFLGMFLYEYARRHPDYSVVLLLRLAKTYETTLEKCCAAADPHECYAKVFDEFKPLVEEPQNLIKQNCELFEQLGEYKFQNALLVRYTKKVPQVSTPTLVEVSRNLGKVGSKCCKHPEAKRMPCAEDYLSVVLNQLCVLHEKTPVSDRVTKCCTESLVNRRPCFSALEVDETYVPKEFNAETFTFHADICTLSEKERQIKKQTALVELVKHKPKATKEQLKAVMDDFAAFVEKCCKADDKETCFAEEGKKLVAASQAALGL

Compound	Drug metabolism (Liver) [nmol/min/mg]	MRT [1] [h]	Cmax [2] [µg/mL]	Tmax [3] [h]	AUC [4] [µg·h/mL]	Drug metabolism (Liver microsome) [nmol/min/mg]	Stability [6]	fraction unbound at 10 min, up to 50 µM (albumin)	solubility at 20 min [7] [mM]	solubility at 20 min [8] [mM]	solubility at 20 min [9] [mM]	Drug metabolism [10] [nmol/min/mg]	bioavailability (in vivo [11]) [%]	half-life (in vivo [12]) [h]	EC50 (Influenza A virus [14]) [nM]	IC50 (Influenza A virus [15]) [nM]	IC50 (Influenza A virus [16]) [nM]	IC (MDCK)	Drug metabolism [20] [nmol/min/mg]	further results
CCOC(=O)C1=C[C@@H](OC(CC)CC)[C@H](NC(C)=O)[C@@H](NC(N)=NO)C1	0.76	2.8	0.1	1.52	0.317	1.76	Stable	0.625	> 50	> 50	> 50	1.74	1.5	1.15	–	–	–	–	–	Drug metabolism [5]: 0.28 nmol/min/mg
CC(=O)N[C@H]1[C@H]([C@H](O)[C@H](O)CO)OC(C(=O)O)=C[C@@H]1NC(=N)N [ZANAMIVIR]	–	–	–	–	–	–	–	–	–	–	–	–	–	–	6560	–	–	–	–	Activity (Influenza A virus [13]): Active
CCC(CC)O[C@@H]1C=C(C(=O)O)C[C@H](N)[C@H]1NC(C)=O [OSELTAMIVIR CARBOXYLATE]	–	–	–	–	–	–	–	–	–	–	–	–	–	–	5210	0.24	0.12	<= 200 ug ml-1	–	Activity (Influenza A virus [13]): Active
Br.CCOC(=O)C1=C[C@@H](OC(CC)CC)[C@H](NC(C)=O)[C@@H](NC(C)=N)C1	0.2	1.62	0.2	0.517	0.283	0.64	Stable	0.652	> 50	> 50	> 50	0.56	0.8	0.7	–	–	–	–	0.15	Drug metabolism [17]: 0.83 nmol/min/mg; Drug metabolism [18]: 0.66 nmol/min; Drug metabolism [19]: 0.42 nmol/min/mg; Drug metabolism [21]: 0.3 nmol/min/mg
CCOC(=O)C1=C[C@@H](OC(CC)CC)[C@H](NC(C)=O)[C@@H](N/C(C)=N/O)C1	0.56	3.43	3.1	1.37	13.3	2.3	Stable	0.733	23 (≈ 8.5 mg/mL)	23 (≈ 8.5 mg/mL)	> 50	0.29	31.4	1.85	–	–	–	–	0.51	Drug metabolism [18]: 0.4 nmol/min
CCC(CC)O[C@@H]1C=C(C(=O)O)C[C@H](NC(=N)N)[C@H]1NC(C)=O	–	2.2	0.3	1.72	0.45	–	Stable	0.996	–	–	–	–	1.9	1.22	3120	0.8	0.22	0.55 mM	–	bioavailability [22]: 23%; bioavailability [23]: 48%; F (Rattus norvegicus): 100%; MRT [24]: 0.983 h; AUC [25]: 4.8 µg·h/mL; fraction unbound at 10 min, up to 50 µM [26]: 0.914; half-life (in vivo [27]): 1.57 h
CCOC(=O)C1=C[C@@H](OC(CC)CC)[C@H](NC(C)=O)[C@@H](NC(=N)N)C1	0.32	2.62	0.1	1	0.217	1.06	Stable	0.699	> 50	> 50	> 50	0.79	1.3	1.45	–	–	–	–	0.21	Drug metabolism [17]: 1.35 nmol/min/mg; Drug metabolism [5]: 0.5 nmol/min/mg; Drug metabolism [19]: 0.22 nmol/min/mg; Drug metabolism [21]: 0.22 nmol/min/mg; bioavailability (in vivo [28]): 2.1%
CCOC(=O)C1=C[C@@H](OC(CC)CC)[C@H](NC(C)=O)[C@@H](N)C1 [OSELTAMIVIR]	–	–	–	–	–	–	–	–	–	–	–	–	–	–	–	–	–	–	–	half-life [29]: 0.733 h; bioavailability (in vivo [28]): 36%
CC(=O)N[C@H]1[C@H]([C@H](O)[C@H](O)CO)OC(C(=O)O)=C[C@@H]1N=C(N)N [ZANAMIVIR]	–	–	–	–	–	–	–	–	–	–	–	–	–	–	–	–	–	<= 200 ug ml-1	–	–
CCC(CC)O[C@@H]1C=C(C(=O)O)C[C@H](NC(C)=N)[C@H]1NC(C)=O	–	2.1	0.6	0.733	1.88	–	Stable	0.978	> 50	> 50	> 50	–	3.9	1.13	1900	1.82	0.4	0.53 mM	–	IC50 (Neuraminidase [30]): 1.79 nM; IC50 (Neuraminidase [31]): 1.3 nM; IC50 (Neuraminidase [32]): 1.87 nM; IC50 (Neuraminidase [33]): 0.3 nM; IC50 (Neuraminidase [34]): 0.44 nM; IC50 (Neuraminidase [35]): 0.45 nM; F (Rattus norvegicus): 100%; MRT [24]: 0.533 h; fraction unbound at 10 min, up to 50 µM [26]: 0.963; IC50 (Neuraminidase [36]): 2.3 nM; half-life (in vivo [27]): 0.567 h
